{"source": "paper PMC11784026", "about": "“Phase 1 study of the safety, tolerability, and pharmacokinetics of a synthetic macrocyclic peptide antibiotic (BRII-693) in healthy adult participants” (Antimicrobial Agents and Chemotherapy, 2024)", "assay_type_in_all_cases": "in vivo, human (healthy adult participants)", "key": {"[1]": {"assay": "Renal function: serum creatinine, RIFLE Risk criteria", "conditions": "for Serum creatinine level: cohort 12, 150 mg q6h × 14 days", "source_text": "Safety assessments included repeated measures of laboratory testing, vital signs, ECGs, physical examinations, and adverse event (AE) monitoring and reporting conducted before, during, and after study drug administration. A >1.5× increase from baseline in creatinine was characterized as meeting the (RIFLE) “Risk” level (or Class R) criteria ([10]). Participants were confined at the clinical research unit for the duration of their study participation. For the SAD cohorts, confinement was from the day before dosing through day 3 (at least 48 hours after dosing). For the MAD cohorts, confinement was from the day before dosing through day 11 for cohorts 8 to 10 and through day 17 for cohorts 11 and 12."}, "[2]": {"assay": "Plasma pharmacokinetics after single ascending doses (SAD), phase 1", "conditions": "for clearance / Vd / half-life / AUC(0-inf) / Cmax / AUC(0-t) / Tmax: human, plasma; for clearance: total clearance; for Vd: volume of distribution during terminal phase, read-out: VZ; for half-life: apparent terminal half-life; for AUC(0-t): read-out: AUC0–6h", "protocol": "Participants were then discharged on day 3.\n(§1) Plasma and urine PK parameters were summarized for each cohort using descriptive statistics. Analyses using linear models were performed to assess dose proportionality (both single-dose cohorts 1–7 and multiple-dose cohorts 8–10). Dose-linearity of Cmax and AUC across the dose range was assessed by fitting the power model with ln-transformed parameter as response variables and ln-transformed dose (continuous variable) as a fixed effect. For each PK parameter and study phase (SAD or MAD) separately, a pooled estimate (across all dose cohorts) of slope, corresponding 95% confidence interval (CI), and between-subject coefficient of variation (CV) were calculated. Dose proportionality was to be concluded if the 95% CI for the slope spans 1. […] Least square means (LSMs) and difference in LSMs with 90% CI were calculated; these values were then back exponentiated to give the geometric LSM, geometric mean ratio, and 90% CI."}, "[3]": {"assay": "Plasma pharmacokinetics after multiple ascending doses (MAD), phase 1", "protocol": "Participants were discharged on day 11.\nas §1"}, "[4]": {"conditions": "single 1-h IV infusion 10 mg, n = 6, arithmetic mean ± SD"}, "[5]": {"conditions": "single 1-h IV infusion 25 mg, n = 5, arithmetic mean ± SD"}, "[6]": {"conditions": "single 1-h IV infusion 50 mg, n = 6, arithmetic mean ± SD"}, "[7]": {"conditions": "single 1-h IV infusion 100 mg, n = 6, arithmetic mean ± SD"}, "[8]": {"conditions": "single 1-h IV infusion 200 mg, n = 6, arithmetic mean ± SD"}, "[9]": {"conditions": "single 1-h IV infusion 300 mg, n = 6, arithmetic mean ± SD"}, "[10]": {"conditions": "single 1-h IV infusion 400 mg, n = 6, arithmetic mean ± SD"}}, "note": "Several values for one entry are separate records, joined by “and”; a condition that tells them apart may be missing. Identical values can stand only once. Like-named read-outs stand apart in the source and are kept apart here. Where a SMILES comes first, the peptide text is derived from it. Bridges are numbered along the chain shown (N, C = ends). [ ]: non-standard residue; d: D form. The star is where a group is joined. X1 = O=C(c1ccc(Cl)cc1Cl)*; Dab = NCC[C@H](N)C(=O)O; Abu = CC[C@H](N)C(=O)O; Dap = NC[C@H](N)C(=O)O"}
{"smiles": "CC[C@@H]1NC(=O)[C@@H](CC(C)C)NC(=O)[C@H](CCN)NC(=O)[C@@H](NC(=O)[C@H](CN)NC(=O)[C@@H](NC(=O)[C@H](CCN)NC(=O)c2ccc(Cl)cc2Cl)[C@@H](C)O)CCNC(=O)[C@H]([C@@H](C)O)NC(=O)[C@H](CCN)NC(=O)[C@H](CCN)NC1=O", "note": "[BRII-693] (X1-[Dab]T[Dap][Dab][Dab][dL][Abu][Dab][Dab]T; lactam 4-C; N-terminus assumed)", "values": [{"measurement": "Participants with creatinine elevation (>1.5× increase from baseline, RIFLE risk class)", "setting": "[1]; 150 mg q6h × 14 days", "result": "1 of 20"}, {"measurement": "Serum creatinine level after completion of therapy", "setting": "[1]; 200 mg q6h × 7 days, first participant, day 11", "result": 1.17, "unit": "mg/dL"}, {"measurement": "Peak serum creatinine level", "setting": "[1]; 200 mg q6h × 7 days, one participant, day 10", "result": 1.54, "unit": "mg/dL"}, {"measurement": "Serum creatinine level after completion of therapy", "setting": "[1]; 200 mg q6h × 7 days, other participant, day 11", "result": 1.10, "unit": "mg/dL"}, {"measurement": "Participants with creatinine elevation (>1.5× increase from baseline, RIFLE risk class)", "setting": "[1]; 200 mg q6h × 7 days, reversible", "result": "Two of six and 2 of 6"}, {"measurement": "Peak serum creatinine level", "setting": "[1]; 200 mg q6h × 7 days, the other participant, day 9", "result": 1.64, "unit": "mg/dL"}, {"measurement": "Serum creatinine level", "setting": "[1]; one participant, day 9", "result": 1.74, "unit": "mg/dL"}, {"measurement": "Serum creatinine level", "setting": "[1]; one participant, day 11", "result": 1.72, "unit": "mg/dL"}, {"measurement": "Serum creatinine level", "setting": "[1]; one participant, day 13", "result": 2.07, "unit": "mg/dL"}, {"measurement": "Serum creatinine level", "setting": "[1]; same participant, unscheduled visit after day 13", "result": 1.39, "unit": "mg/dL"}, {"measurement": "clearance", "setting": "[2]; [4]", "result": 63.8, "unit": "mL/min"}, {"measurement": "Vd", "setting": "[2]; [4]", "result": "14.1 ± 1.54", "unit": "L"}, {"measurement": "clearance", "setting": "[2]; [5]", "result": 72.7, "unit": "mL/min"}, {"measurement": "Vd", "setting": "[2]; [5]", "result": "20.7 ± 7.61", "unit": "L"}, {"measurement": "clearance", "setting": "[2]; [6]", "result": 69.5, "unit": "mL/min"}, {"measurement": "Vd", "setting": "[2]; [6]", "result": "19.2 ± 3.34", "unit": "L"}, {"measurement": "clearance", "setting": "[2]; [7]", "result": 62.7, "unit": "mL/min"}, {"measurement": "Vd", "setting": "[2]; [7]", "result": "21.8 ± 3.17", "unit": "L"}, {"measurement": "clearance", "setting": "[2]; [8]", "result": 68.5, "unit": "mL/min"}, {"measurement": "Vd", "setting": "[2]; [8]", "result": "21.3 ± 3.27", "unit": "L"}, {"measurement": "clearance", "setting": "[2]; [9]", "result": 72.3, "unit": "mL/min"}, {"measurement": "Vd", "setting": "[2]; [9]", "result": "25.8 ± 2.73", "unit": "L"}, {"measurement": "clearance", "setting": "[2]; [10]", "result": 65.5, "unit": "mL/min"}, {"measurement": "Vd", "setting": "[2]; [10]", "result": "24.6 ± 2.47", "unit": "L"}, {"measurement": "half-life", "setting": "[2]; [4]", "result": "2.58 ± 0.46", "unit": "h"}, {"measurement": "AUC(0-inf)", "setting": "[2]; [4]", "result": "2640 ± 330", "unit": "ng·h/mL"}, {"measurement": "Cmax", "setting": "[2]; [4]", "result": "770 ± 120", "unit": "ng/mL"}, {"measurement": "AUC(0-t)", "setting": "[2]; [4]", "result": "2080 ± 190", "unit": "ng·h/mL"}, {"measurement": "Tmax", "setting": "[2]; single 1-h IV infusion 10 mg, n = 6, median (range)", "result": 1.12, "unit": "h"}, {"measurement": "half-life", "setting": "[2]; [5]", "result": "3.22 ± 0.77", "unit": "h"}, {"measurement": "AUC(0-inf)", "setting": "[2]; [5]", "result": "5940 ± 1180", "unit": "ng·h/mL"}, {"measurement": "Cmax", "setting": "[2]; [5]", "result": "1500 ± 380", "unit": "ng/mL"}, {"measurement": "AUC(0-t)", "setting": "[2]; [5]", "result": "4390 ± 1130", "unit": "ng·h/mL"}, {"measurement": "Tmax", "setting": "[2]; single 1-h IV infusion 25 mg, n = 5, median (range)", "result": 1.1, "unit": "h"}, {"measurement": "half-life", "setting": "[2]; [6]", "result": "3.2 ± 0.43", "unit": "h"}, {"measurement": "AUC(0-inf)", "setting": "[2]; [6]", "result": "12200 ± 1790", "unit": "ng·h/mL"}, {"measurement": "Cmax", "setting": "[2]; [6]", "result": "3230 ± 460", "unit": "ng/mL"}, {"measurement": "AUC(0-t)", "setting": "[2]; [6]", "result": "9160 ± 1170", "unit": "ng·h/mL"}, {"measurement": "Tmax", "setting": "[2]; single 1-h IV infusion 50 mg, n = 6, median (range)", "result": 1.07, "unit": "h"}, {"measurement": "half-life", "setting": "[2]; [7]", "result": "4.07 ± 0.61", "unit": "h"}, {"measurement": "AUC(0-inf)", "setting": "[2]; [7]", "result": "27300 ± 4580", "unit": "ng·h/mL"}, {"measurement": "Cmax", "setting": "[2]; [7]", "result": "6710 ± 970", "unit": "ng/mL"}, {"measurement": "AUC(0-t)", "setting": "[2]; [7]", "result": "19200 ± 2740", "unit": "ng·h/mL"}, {"measurement": "Tmax", "setting": "[2]; single 1-h IV infusion 100 mg, n = 6, median (range)", "result": 1.13, "unit": "h"}, {"measurement": "half-life", "setting": "[2]; [8]", "result": "3.83 ± 1.23", "unit": "h"}, {"measurement": "AUC(0-inf)", "setting": "[2]; [8]", "result": "51400 ± 13900", "unit": "ng·h/mL"}, {"measurement": "Cmax", "setting": "[2]; [8]", "result": "13200 ± 2190", "unit": "ng/mL"}, {"measurement": "AUC(0-t)", "setting": "[2]; [8]", "result": "36700 ± 6290", "unit": "ng·h/mL"}, {"measurement": "Tmax", "setting": "[2]; single 1-h IV infusion 200 mg, n = 6, median (range)", "result": 1.18, "unit": "h"}, {"measurement": "half-life", "setting": "[2]; [9]", "result": "4.12 ± 0.23", "unit": "h"}, {"measurement": "AUC(0-inf)", "setting": "[2]; [9]", "result": "69800 ± 7750", "unit": "ng·h/mL"}, {"measurement": "Cmax", "setting": "[2]; [9]", "result": "17300 ± 3050", "unit": "ng/mL"}, {"measurement": "AUC(0-t)", "setting": "[2]; [9]", "result": "48900 ± 6180", "unit": "ng·h/mL"}, {"measurement": "Tmax", "setting": "[2]; single 1-h IV infusion 300 mg, n = 6, median (range)", "result": 1.16, "unit": "h"}, {"measurement": "half-life", "setting": "[2]; [10]", "result": "4.37 ± 0.51", "unit": "h"}, {"measurement": "AUC(0-inf)", "setting": "[2]; [10]", "result": "103000 ± 11600", "unit": "ng·h/mL"}, {"measurement": "Cmax", "setting": "[2]; [10]", "result": "24300 ± 4710", "unit": "ng/mL"}, {"measurement": "AUC(0-t)", "setting": "[2]; [10]", "result": "71400 ± 7200", "unit": "ng·h/mL"}, {"measurement": "Tmax", "setting": "[2]; single 1-h IV infusion 400 mg, n = 6, median (range)", "result": 1.19, "unit": "h"}, {"measurement": "Mean total clearance", "setting": "[2]; single doses 10–400 mg, appeared dose independent", "result": "approximately 4 L/h"}, {"measurement": "Tmax", "setting": "[3]; First q6h dose (day 1), 14-day MAD 150 mg q6h × 14, Chinese, n = 10, median (range)", "result": "1.08 (1.02, 1.12) h"}, {"measurement": "Tmax", "setting": "[3]; First q6h dose (day 1), 14-day MAD 150 mg q6h × 14, non-Chinese, n = 10, median (range)", "result": "1.07 (1.03, 1.25) h"}, {"measurement": "Tmax", "setting": "[3]; First q6h dose (day 3), 7-day MAD 100 mg q6h × 7, n = 6, median (range)", "result": "1.13 (1.08, 1.25) h"}, {"measurement": "t1/2", "setting": "[3]; First q6h dose (day 3), 7-day MAD 150 mg q6h × 7, n = 5, arithmetic mean ± SD", "result": "2.40 ± 0.21", "unit": "h"}]}
